pKi: −log10 of the molar value.

The target of this test is T1, Dimer of Gag-Pol polyprotein [489-587] (Human immunodeficiency virus 1, UniProt P04585).
T1 construct: 489-587
As to the kind of experiment: Protease Inhibition Assay. As for the experimental part:
Inhibition of HIV protease was measured by assay of the cleavage of a fluorescent peptide substrate. The fluorescent product (2-aminobenzoyl-Ala-Thr-His-Gln-Val-Tyr) was separated from the fluorescent substrate by anion-exchange HPLC on a Mono-Q anion-exchange column (Pharmacia), and fluorescence was monitored at an excitation wavelength of 330 nm and an emission wavelength of 430 nm. Ki values for inhibitor binding were estimated at fixed concentrations of substrate and inhibitor from fractional activity measurements by use of the modified Michaelis-Menten equation.

`N/C(=N\O)c1cccc(CN2C(=O)N[C@H](CCc3ccccc3)[C@@H](O)[C@H]2Cc2ccccc2)c1` [(4R,5R,6R)-Tetrahydro-1-(3-(N-hydroxycarboximidamide)phenylmethyl)-6-phenylmethyl-5-hydroxy-4-(2-phenylethyl)-2(1H)-pyrimidinone]: the negative logarithm of the Ki (pKi) was 9.62.
In the case of `O=C1N[C@H](CCc2ccccc2)[C@@H](O)[C@@H](Cc2ccccc2)N1Cc1ccccc1` [(4R,5S,6R)-Tetrahydro-1,6-bis-(phenylmethyl)-5-hydroxy-4-(2-phenylethyl)-2(1H)-pyrimidinone], the pKi is 7.18.

For orientation: pKi means −log10 of the Ki, conventionally taken in molar units.

(Values after BindingDB's records for doi:10.1021/jm9803626 (Dupont Pharmaceuticals, 1999).)
